From PMC10096175, “An In Vitro Antimicrobial, Anticancer and Antioxidant Activity of N–[(2–Arylmethylthio)phenylsulfonyl]cinnamamide Derivatives” (Molecules, 2023)
Converted amounts (≈) assume the structure as drawn. Read-outs that look alike come from different tables or passages of the source. Values belong to the compound of their own block, whether it stands above or below them.

How the values were obtained:
[1] = system: quorum sensing system of C. violaceum; set-up: method as in doi:10.1016/j.ibiod.2018.06.003; conditions: cited from earlier work
S. aureus ATCC 6538 [2] = assay: MIC determination, reference strain (microdilution); assay type: cell-based; conditions: Staphylococcus aureus, ATCC6538
[3] = system: S. epidermidis ATCC 14990; assay: as above; assay type: cell-based; conditions: Staphylococcus epidermidis, ATCC14990
E. hirae ATCC 10541 = assay: as above; assay type: cell-based; conditions: Enterococcus hirae, ATCC10541
E. faecalis ATCC 51299 = assay: as above; assay type: cell-based; conditions: Enterococcus faecalis, ATCC51299
B. subtilis ATCC 6633 = assay: as above; assay type: cell-based; conditions: Bacillus subtilis, ATCC6633
C. diphtheriae = assay: as above; assay type: cell-based; conditions: Corynebacterium diphtheriae
C. albicans ATCC 10231 = assay: MIC determination, reference fungal strain (microdilution); assay type: cell-based; conditions: Candida albicans, ATCC10231
E. coli ATCC 8739 = assay: MIC determination, reference strain (microdilution); assay type: cell-based; conditions: Escherichia coli, ATCC8739
HeLa cells = assay: MTT assay; assay type: cell-based, human; conditions: for IC50: Homo sapiens, HeLa, 24 h
SKOV-3 cells = assay: MTT assay; assay type: cell-based, human; conditions: for IC50: Homo sapiens
MCF-7 cells = assay: MTT assay; assay type: cell-based, human; conditions: for IC50: Homo sapiens
HEK-293 cells = assay: MTT assay, noncancerous cells; assay type: cell-based; conditions: Homo sapiens
[4] = system: cancer cells (HeLa, SKOV-3, MCF-7); assay: MTT assay, summary statements on the cancer cells; assay type: cell-based; conditions: Homo sapiens, cell line not specified, MTT
DPPH assay = conditions: DPPH radical scavenging; 40 min, room temperature
Method: The DPPH assay was performed spectrophotometrically. The amount of 30 µL of different concentrations of samples, dissolved in methanol/DMSO (9/1 v/v), was mixed with 170 µL of 0.06 mM DPPH methanolic solution and completed with methanol to a final volume of 300 µL. DPPH methanolic solution with methanol/DMSO (9/1 v/v) was used as a control. After 40 min of incubation at room temperature in the dark, the absorbance was analyzed at λ = 510 nm by a 96-well microplate reader (Epoch, BioTek System, Santa Clara, CA, USA). Ascorbic acid was used as a standard.
DPPH inhibition was calculated by the following equation:DPPH Inhibition (%) = [Acontrol − Asample)/Acontrol] × 100%
(§1) IC50 values of the samples were calculated using program GraFit v. 7.0 (Erithacus Software). The analysis was performed three times, with tree replications in each (n = 9). Statistical analysis was performed with one-way ANOVA with Tuckey’s post-hoc test.

ABTS assay = conditions: ABTS radical scavenging; 10 min, 30 °C
Method: The ABTS assay was performed spectrophotometrically. […] ABTS solution with methanol/DMSO (9/1 v/v) was used as a control. After 10 min of incubation at 30 °C in the dark, the absorbance was analyzed at λ = 750 nm by a 96-well microplate reader (Epoch, BioTek System, Santa Clara, CA, USA). Ascorbic acid was used as a standard.
ABTS inhibition was calculated by the following equation:ABTS Inhibition (%) = [Acontrol − Asample)/Acontrol] × 100%
as §1

in vitro = conditions: sheep, pH 7
S. aureus ATCC 6538 [5] = assay: Blood bacteriostatic activity test in sheep blood; assay type: cell-based, Staphylococcus aureus; conditions: 24 h, 37 °C, t0 1.30 × 10^8, control t24 2.28 × 10^9
Method: (§2) The manifestation of the bactericidal properties of chemical compounds is low minimum bactericidal concentration (MBC) values, which allows many groups of researchers to check the killing rate over time (time killing tests). It is an important element in determining the strength and speed of action of a compound on bacteria. Such studies are usually carried out in bacterial media, without additional factors influencing the results.
(§3) This step was carried out on two types of bacteria, S. aureus ATCC 6538 (Figure 8 and Table 2) and S. epidermidis ATCC 14 990 (Figure 9 and Table 3).
(§4) The number of bacteria at the initial time (t0) was 1.30 × 10^8 CFU/mL for S. aureus and 1.70 × 10^7 CFU/mL for S. epidermidis. Live bacterial cells were assayed after 24 h of incubation at 37 °C. […] Bacterial controls without compounds grew unhindered and after 24 h (t24) were 2.28 × 10^9 for S. aureus and 5.10 × 10^8 CFU/mL for S. epidermidis. […] It can be assumed that the tested compounds were not related to any fraction of the blood. Attention should be paid to the S. epidermidis tests and the difference between the number of bacteria at t0 and after 24 h of incubation for each compound. The number of bacteria at t0 was 1.70 × 10^7 CFU/mL and after 24 h it decreased to, e.g., 9.40 × 10^6 CFU/mL for compounds 16e and 7.80 × 10^6 CFU/mL for compound 17c. It can be assumed that the tested compounds after being added to blood samples prevented bacteria from multiplying. However, under these conditions, the phagocytic cells take up the bacteria. […] This can be explained by much greater variety of mechanisms of action of S. aureus against phagocytic cells than of S. epidermidis. This can be integrated with the bacterial cell compounds, e.g., protein A, as well as enzymes that bacteria can secrete outside the cell, e.g., coagulase and staphylokinase. Additional studies should be conducted to check how the tested compounds affect the enzymes secreted by S. aureus.
(§5) The assay was performed as previously described by with a modification. Pure sheep blood was used for the research. Two strains of bacteria S. aureus ATCC 6538 and S. epidermidis ATCC 14990 were used with an inoculum density of approximately 10^8 CFU/mL at 0 time. The final concentration of the compounds was 0.5, 1, 2, 4, and 8 µg/mL, and the final volume of the assay tube was 1 mL. Bacterial survivors were determined on MH agar plates (CFU/mL) at 24 h after exposure.

[6] = system: S. epidermidis ATCC 14990; assay: Blood bacteriostatic activity test in sheep blood; assay type: cell-based, Staphylococcus epidermidis; conditions: 24 h, 37 °C, t0 1.70 × 10^7, control t24 5.10 × 10^8
Method: as §2, §3, §4, §5

[7] = C. albicans ATCC 10231, read-out: MIC
[8] = MTT, 24 h treatment, read-out: IC50
[9] = SK-OV-3, SKOV-3, MTT, 24 h treatment, read-out: IC50
[10] = MCF7, MCF-7, MTT, 24 h treatment, read-out: IC50

Structure (SMILES): O=C(O)C=Cc1ccc([N+](=O)[O-])cc1 [4–nitrocinnamic acid]
- Quorum sensing inhibition ([1]; at 5 mM): completely inhibit

Structure (SMILES): OCC=Cc1ccccc1 [cinnamyl alcohol]
- Quorum sensing inhibition ([1]; at 1 mM): completely inhibit

Structure (SMILES): CC(=Cc1ccccc1)C(=O)O [α–methylcinnamic acid]
- Quorum sensing inhibition ([1]; at 5 mM): completely inhibit

- MIC (S. aureus ATCC 6538 [2]; S. aureus ATCC 6538, ± SD, Co-trimoxazole as sulfamethoxazole/trimethoprim, read-out: MIC): 1 ± 0.29 µg/mL (≈ 1.81 µM)
- MIC ([3]; S. epidermidis ATCC 14990, Co-trimoxazole as sulfamethoxazole/trimethoprim, read-out: MIC): 2 ± 0.58 µg/mL (≈ 3.62 µM)
- MIC (E. hirae ATCC 10541; E. hirae ATCC 10541, Co-trimoxazole as sulfamethoxazole/trimethoprim, read-out: MIC): 4 ± 0.15 µg/mL (≈ 7.23 µM)
- MIC (E. faecalis ATCC 51299; E. faecalis ATCC 51299, Co-trimoxazole as sulfamethoxazole/trimethoprim, read-out: MIC): 4 ± 0.15 µg/mL (≈ 7.23 µM)
- MIC (B. subtilis ATCC 6633; B. subtilis ATCC 6633, Co-trimoxazole as sulfamethoxazole/trimethoprim, read-out: MIC): 62.5 ± 0.29 µg/mL (≈ 113 µM)
- MIC (C. diphtheriae; C. diphtheriae, Co-trimoxazole as sulfamethoxazole/trimethoprim, read-out: MIC): 62.5 ± 0.29 µg/mL (≈ 113 µM)
- MIC (C. albicans ATCC 10231; [7]): > 125 µg/mL
- MIC (E. coli ATCC 8739; E. coli ATCC 8739, Co-trimoxazole as sulfamethoxazole/trimethoprim, read-out: MIC): > 125 µg/mL
- IC50 (HeLa cells; [8]): 62.8 ± 3.75 µg/mL (≈ 114 µM)
- IC50 (SKOV-3 cells; [9]): 70.53 ± 0.21 µg/mL (≈ 128 µM)
- IC50 (MCF-7 cells; [10]): 93.5 ± 4.71 µg/mL (≈ 169 µM)
- IC50 [4]: > 60 µg/mL
- IC50 DPPH (DPPH assay): 310.50 ± 0.73 µg/mL (≈ 561 µM)
- IC50 ABTS (ABTS assay): 597.53 ± 1.3 µg/mL (≈ 1080 µM)
Structure (SMILES): Cc1cc(S(=O)(=O)NC(=O)/C=C/c2ccc([N+](=O)[O-])cc2)c(SCc2cccc3ccccc23)cc1Cl [Compound 16f, (E)–N–{4–Chloro–5–methyl–2–[(naphthalen–1–yl)methylthio]phenylsulfonyl}–3–(4–nitrophenyl)acrylamide]
- Selectivity index (SI) (HeLa cells; IC50 HEK-293 / IC50 HeLa): 1.5
- Selectivity index (SI) (SKOV-3 cells; IC50 HEK-293 / IC50 SKOV-3): 1.3
- Selectivity index (SI) (MCF-7 cells; IC50 HEK-293 / IC50 MCF-7): 1.0
- IC50 (HEK-293 cells; HEK293, HEK-293, MTT, 24 h treatment, read-out: IC50): 94.5 ± 4.7 µg/mL (≈ 171 µM)
- hemolysis at 24 h, 31.25 µg/mL (in vitro; defibrinated sheep blood diluted 1:9 v/v with PBS): 12 to 20%

Structure (SMILES): NC(=O)C=Cc1ccccc1 [cinnamamide]
- Quorum sensing inhibition ([1]; at 5 mM): completely inhibit

Structure (SMILES): Cc1cc(S(=O)(=O)NC(=O)C=Cc2ccccc2)c(SCc2cccc3ccccc23)cc1Cl [Compound 16a, N–[4–Chloro–5–methyl–2–(naphthalen–1–ylmethylthio)benzenesulfonyl]cinnamamide]
- MIC (S. aureus ATCC 6538 [2]): 1 ± 0.29 µg/mL (≈ 1.97 µM)
- MIC [3]: 2 ± 0.58 µg/mL (≈ 3.94 µM)
- MIC (E. hirae ATCC 10541): 4 ± 0.15 µg/mL (≈ 7.87 µM)
- MIC (E. faecalis ATCC 51299): 2 ± 0.58 µg/mL (≈ 3.94 µM)
- MIC (B. subtilis ATCC 6633): 62.5 ± 0.29 µg/mL (≈ 123 µM)
- MIC (C. diphtheriae): 62.5 ± 0.29 µg/mL (≈ 123 µM)
- MIC (C. albicans ATCC 10231): > 125 µg/mL
- MIC (E. coli ATCC 8739): > 125 µg/mL
- Number of viable cells of Staphylococcus aureus (S. aureus ATCC 6538 [5]; 1 µg/mL): 1.23 × 10^8 CFU/mL
- Number of viable cells of Staphylococcus aureus (S. aureus ATCC 6538 [5]; 2 µg/mL): 7.50 × 10^8 CFU/mL
- Number of viable cells of Staphylococcus aureus (S. aureus ATCC 6538 [5]; 4 µg/mL): 8.10 × 10^8 CFU/mL
- Number of viable cells of Staphylococcus aureus (S. aureus ATCC 6538 [5]; 8 µg/mL): 1.29 × 10^8 CFU/mL
- Number of viable cells of Staphylococcus epidermidis ([6]; 1 µg/mL): 3.00 × 10^6 CFU/mL
- Number of viable cells of Staphylococcus epidermidis ([6]; 2 µg/mL): 4.00 × 10^6 CFU/mL
- Number of viable cells of Staphylococcus epidermidis ([6]; 4 µg/mL): 1.10 × 10^6 CFU/mL
- Number of viable cells of Staphylococcus epidermidis ([6]; 8 µg/mL): 2.50 × 10^6 CFU/mL
- IC50 (HeLa cells): 13.7 ± 1.12 µg/mL (≈ 27 µM)
- IC50 (SKOV-3 cells; SK-OV-3, 24 h): 11.8 ± 0.8 µg/mL (≈ 23.3 µM)
- IC50 (MCF-7 cells; MCF7, 24 h): 14.3 ± 0.28 µg/mL (≈ 28.2 µM)
- IC50 (HEK-293 cells; HEK293, 24 h): 13.6 ± 0.19 µg/mL (≈ 26.7 µM)
- IC50 DPPH (DPPH assay): 1048.33 ± 0.48 µg/mL (≈ 2060 µM)
- IC50 ABTS (ABTS assay): 717.99 ± 1.01 µg/mL (≈ 1410 µM)
- hemolysis at 24 h, 125 µg/mL (in vitro): 43%

- IC50 DPPH (DPPH assay): 10.78 ± 0.11 µg/mL (≈ 61.2 µM)
- IC50 ABTS (ABTS assay): 18.99 ± 0.03 µg/mL (≈ 108 µM)
Structure (SMILES): O=C1O[C@H]([C@@H](O)CO)C(O)=C1O [Ascorbic acid, ascorbic acid, reference compound]

- MIC (C. albicans ATCC 10231; [7]): > 125 µg/mL
Structure (SMILES): CC(=O)N1CCN(c2ccc(OCC3COC(Cn4ccnc4)(c4ccc(Cl)cc4Cl)O3)cc2)CC1 (centres unmarked) [Ketoconazole, reference compound]

Structure (SMILES): O=C(O)/C=C/c1ccccc1 [cinnamic acid]
- Quorum sensing inhibition ([1]; at 5 mM): completely inhibit

Structure (SMILES): O=C(O)C=Cc1ccc2c(c1)OCO2 [3,4–(methylenedioxy)cinnamic acid]
- Quorum sensing inhibition ([1]; at 5 mM): completely inhibit

- IC50 (HeLa cells; [8]): 0.005 ± 0.0004 µg/mL
- IC50 (SKOV-3 cells; [9]): 0.008 ± 0.0003 µg/mL
- IC50 (MCF-7 cells; [10]): 0.007 ± 0.0008 µg/mL
Structure (SMILES): CC[C@]1(O)C[C@@H]2CN(CCc3c([nH]c4ccccc34)[C@@](C(=O)OC)(c3cc4c(cc3OC)N(C)[C@H]3[C@@](O)(C(=O)OC)[C@H](OC(C)=O)[C@]5(CC)C=CCN6CC[C@]43[C@@H]65)C2)C1 [V. sulphate, Vinblastine sulphate, reference compound]

Structure (SMILES): C=CCOC(=O)C=Cc1ccccc1 [allyl cinnamate]
- Quorum sensing inhibition ([1]; at 1 mM): completely inhibit

Structure (SMILES): O=C(O)C=Cc1ccc(Cl)cc1 [4–chlorocinnamic acid]
- Quorum sensing inhibition ([1]; at 5 mM): completely inhibit
